Read-outs that look alike come from different tables or passages of the source.
Assays:
RS4-11 (MLL-AF4) = test: LTP assay, CellTiterGlo, T4-T14 (Example 103), RS4-11; format: cell-based; conditions: for IC50: Homo sapiens
Protocol: (§1) The day of the experiment (T0) all the cell line suspensions were counted by Cell Viability Analyser, Vi-CELL and properly diluted with fresh medium to obtain the cell density reported in the Test System paragraph.
(§2) Cells were tested after 4 passages after thawing.
(§3) 200 μL/well and 150 μL/well of cell suspension were added into the 0.4 μL/well and 0.3 μL/well compound plates, respectively. • Cell plate containing 200 μL/well suspension was incubated at 37° C. in a humidified incubator with 5% CO2. • From each well of the 150 μL/well cell assay plate, 100 μL were harvested and transferred into a 96-well Optiplate (Perkin Elmer, Cat. n. 6005290) and cell viability was measured as described in 4.3 paragraphs (T0).
(§4) After four days in culture (T4) 150 μL/well of fresh medium were added into a new 0.3 μL/well copy compound plate. • From each well of the 200 μL/well cell assay plate: • 100 μL were sampled for the cell viability measurement as described in 4.3 paragraphs (T4). • 50 μL were harvested and added to the 150 μL/well compound plate prepared as described in the first point to dilute 1:4 the cell suspension. • The cell assay plate diluted and containing 200 μL/well suspension were incubated at 37° C. in a humidified incubator with 5% Co2.
(§5) At T7-T11-T14 it was proceeded as described in T4, with the exception that no further cell dilution was carried out at T14.
(§6) Plates containing the samples to be tested were equilibrated at room temperature for approximately 30 min and then 30 μL/well of the Promega CellTiterGlo® reagent were added.
(§7) Contents will be mixed for 5 min on an orbital shaker to induce cell lysis and then incubated at room temperature for an additional 10 min to stabilize the luminescent signal.
(§8) Luminescence was read by using VictorV (Perkin Elmer) multilabel plate reader using the standard protocol for luminescence in 96 well plate.
(§9) Data were expressed as % of inhibition compared to the 0.2% DMSO negative control, and was calculated as follows: […]
(§10) CRCs were analysed by GraphPad and IC50 values were calculated by non-linear regression using 4 parameter-logistic equation. IC50 (μM) values were reported in the final data table.
(§11) The curve fittings were performed leaving free all the parameters. Any constrain were reported in the results table.

HL-60 = test: LTP assay, CellTiterGlo, T4-T14 (Example 103), HL-60; format: cell-based
Protocol: as §1, §2, §3, §4, §5, §6, §7, §8, §9, §10, §11

MOLM-13 (MLL-AF9) = test: LTP assay, CellTiterGlo, T4-T14 (Example 103), MOLM-13; format: cell-based, human; conditions: for IC50: Homo sapiens
Protocol: as §1, §2, §3, §4, §5, §6, §7, §8, §9, §10, §11

MV4-11 (MLL-AF4) = test: LTP assay, CellTiterGlo, T4-T14 (Example 103), MV4-11; format: cell-based, human; conditions: for IC50: Homo sapiens
Protocol: as §1, §2, §3, §4, §5, §6, §7, §8, §9, §10, §11

[1] = RS4-11, 96 h, RS4-11 (MLL-AF4), T4 (Day 4), read-out: IC50 T4 (Day 4)
[2] = RS4-11, RS4-11 (MLL-AF4), T7, read-out: IC50 T7
[3] = RS4-11, RS4-11 (MLL-AF4), T11, read-out: IC50 T11
[4] = Homo sapiens, HL-60, 96 h, HL-60, T4 (Day 4), read-out: IC50 T4 (Day 4)
[5] = Homo sapiens, HL-60, HL-60, T7, read-out: IC50 T7
[6] = Homo sapiens, HL-60, HL-60, T11, read-out: IC50 T11
[7] = Homo sapiens, HL-60, HL-60, T14, read-out: IC50 T14
[8] = MOLM-13, 96 h, MOLM-13 (MLL-AF9), T4 (Day 4), read-out: IC50 T4 (Day 4)
[9] = MOLM-13, MOLM-13 (MLL-AF9), T7, read-out: IC50 T7
[10] = MOLM-13, MOLM-13 (MLL-AF9), T11, read-out: IC50 T11
[11] = MOLM-13, MOLM-13 (MLL-AF9), T14, read-out: IC50 T14
[12] = MV4-11, 96 h, MV4-11 (MLL-AF4), T4 (Day 4), read-out: IC50 T4 (Day 4)
[13] = MV4-11, MV4-11 (MLL-AF4), T7, read-out: IC50 T7
[14] = MV4-11, MV4-11 (MLL-AF4), T11, read-out: IC50 T11
[15] = MV4-11, MV4-11 (MLL-AF4), T14, read-out: IC50 T14

Row | Compound | IC50 (RS4-11 (MLL-AF4); [1]) [µM] | IC50 (RS4-11 (MLL-AF4); [2]) [µM] | IC50 (RS4-11 (MLL-AF4); [3]) [µM] | inhibition of cell viability (in words) (RS4-11 (MLL-AF4); RS4;11, LTP assay) | inhibition of cell viability (in words) (HL-60; HL-60, LTP assay) | IC50 (HL-60; HL-60, T7, read-out: IC50 T7) [µM] | IC50 (HL-60; [4]) [µM] | IC50 (HL-60; [5]) [µM] | IC50 (HL-60; [6]) [µM] | IC50 (HL-60; [7]) [µM] | IC50 (MOLM-13 (MLL-AF9); [8]) [µM] | IC50 (MOLM-13 (MLL-AF9); [9]) [µM] | IC50 (MOLM-13 (MLL-AF9); [10]) [µM] | IC50 (MOLM-13 (MLL-AF9); [11]) [µM] | inhibition of cell viability (in words) (MOLM-13 (MLL-AF9); MOLM-13, LTP assay) | IC50 (MV4-11 (MLL-AF4); [12]) [µM] | IC50 (MV4-11 (MLL-AF4); [13]) [µM] | IC50 (MV4-11 (MLL-AF4); [14]) [µM] | IC50 (MV4-11 (MLL-AF4); [15]) [µM] | inhibition of cell viability (in words) (MV4-11 (MLL-AF4); MV4-11, LTP assay)
1 | O=C(Nc1ccc(-c2nc3c(N4CCOCC4)nccc3[nH]2)cc1)Nc1cc(-c2cccnc2)n[nH]1 [Compound 19, 1-{4-[4-(morpholin-4-yl)-1H-imidazo[4,5-c]pyridin-2-yl]phenyl}-3-[3-(pyridin-3-yl)-1Hpyrazol-5-yl]urea] | 1.62 | 1.55 | > 5 | fully inhibits the cell viability | fully inhibits the cell viability | 0.871 | 1.55 | 0.87 | 0.65 | 0.59 | 0.83 | 0.74 | 0.78 | 1.32 | fully inhibits the cell viability | 1.29 | 1.41 | 0.05 | 0.08 | fully inhibits the cell viability
2 | Cc1ccc(-c2cc(CC(=O)Nc3ccc(-c4nc5c(N6CCOCC6)nccc5[nH]4)cc3)[nH]n2)cn1 [Compound 32] | > 5 | 2.75 | > 5 |  |  |  | > 5 | > 5 | > 5 | > 5 | > 5 | > 5 | > 5 | > 5 |  | > 5 | 4.91 | 3.09 | 2.69 | 
